Reference: US10156566B2, “Detoxification of microbial virulence factors in oral cavity” (priority 2015, dated 2018)
Values joined by “and” are separate entries in the source; they are usually repeats but may differ in a detail not shown here. Equal values may be shown once.

System: Lipopolysaccharide

Molecule | inhibition
CCCCC/C=C\C/C=C\C/C=C\C/C=C\CCCC(=O)O[C@H](COC(=O)CCCCCCCCCCCCCCCCC)COP(=O)([O-])OCC[N+](C)(C)C [1-Stearoyl-2-Arachidonoyl PC] | 55%
CCCCCCCCCCCCCCCCOC[C@H](COP(=O)([O-])OCC[N+](C)(C)C)OC(=O)NC [Methylcarbamyl PAF C-16] | 59.7%
CCCCCCCCCCCCCCCCCC[N+](C)(C)Cc1ccccc1 [Stearalkonium chloride] | 96.5%
CCCCC/C=C\C/C=C\C/C=C\C/C=C\CCCC(=O)NCCO [Anandamide (N-arachidonylethanol amide)] | 31.3%
CCCCCCCCCCCC(=O)NCCCN(C)C [(Laurylamidopropyl)dimethyl amine] | 99.1%
Benzalkonium chloride [reference compound] | 97.5%
CCCCCCCCCCCCN(CCO)CCO [N-Lauryldiethanolamine] | 99.6% and 100%
CCCCCCCCc1ccc(CCC(N)(CO)CO)cc1 [FTY720, reference compound] | 79.1%
CCCCCCCCCCCC[N+](C)(C)CCOc1ccccc1 [Domiphen bromide, reference compound] | 95.5%
CCCCCCCCCCCCCCCC[N+](C)(C)C [Cetrimonium chloride] | 99.5%
CCCCCCCCCCCCC/C=C/[C@@H](O)[C@H](COP(=O)(O)O)NC(=O)CCCCCCC [C-8 Ceramide-1-phosphate] | 42.7%
CCCCCCCCCCCCCCCCCCN(CCO)CCO [STEARYLDIETHANOLAMINE] | 88.1%
CCCCCCCCCCCCC/C=C/[C@@H](O)[C@H](CO)NCCCCCCCC [C-8 Ceramine] | 96.7%
COc1cc(/C=C/C(=O)CC(=O)/C=C/c2ccc(O)c(OC)c2)ccc1O [Curcumin] | 55.9%
CCCCCCCC/C=C\CCCCCCCC(=O)OC[C@H](CO)OC(C)=O [1-Oleoyl-2-acetyl-sn-glycerol] | 36.2%
CCCCCCCCCC[N+](C)(C)CCCCCCCCCC [Didecyldimethylammounium chloride] | 97.5%
CC/C=C\C/C=C\C/C=C\CCCCCCCC(=O)OCC [(z,z,z)-9,12,15-octadecatrienoic acid ethyl ester] | 34.9%
CCCCCCCC/C=C\CCCCCCCC(=O)OCCOCCO [diglycol monooleate] | 67%
CCCCCCCC(=O)OC[C@H](CO)OC(=O)CCCCCCC [1,2-Dioctanoyl-sn-glycerol] | 51.2%
CCCCC/C=C\C/C=C\CCCCCCCC(=O)O [potassium linoleate] | 98.9%
CCCCCCCCCCCCC/C=C/[C@@H](O)[C@H](CO)NC(=O)CCCCCCC [C-8 Ceramide] | 65.5%
CC/C=C\C/C=C\C/C=C\C/C=C\C/C=C\CCCC(=O)O[C@H](COCCCCCCCCCCCCCCCC)COP(=O)([O-])OCC[N+](C)(C)C [Eicosapentaenoyl PAF C-16] | 82.7%
CCCCCCCCCCCCCCCC[N+](C)(C)Cc1ccccc1 [Dimethylbenzylcetylammonium chloride] | 95.5%
CC(C)CCC[C@@H](C)[C@H]1CC[C@H]2[C@@H]3CC(=O)[C@@]4(O)C[C@@H](O)CC[C@]4(C)[C@H]3CC[C@]12C [5α-hydroxy-6-keto Cholesterol] | 81.7%
O=C1O/C(=C/Br)CCC1c1cccc2ccccc12 (stereo not drawn) [Bromoenol lactone] | 99.7%
CCCCCCCCCCCCCCCCCCCCCC(=O)NCCS(=O)(=O)O [N-Docosanoyl Taurine] | 85.2%
CCCCC/C=C\C/C=C\C/C=C\C/C=C\CCCC(=O)Nc1ccc(O)cc1 [AM404] | 47.6%
CCCCCCCCCCCCCCCC(=O)OC[C@H](COP(=O)([O-])OCC[N+](C)(C)C)OC(=O)CCCCCCCC(=O)O [PAz-PC] | 72.8%
CCCCCCCCCC(=O)OC[C@H](COP(=O)([O-])OCC[N+](C)(C)C)OC(=O)CCCCCCCCC [1,2-Didecanoyl PC] | 67.9%
CCCCCCCCCCCC[N+](C)(C)Cc1ccccc1 [Dimethyldodecylbenzylammonium bromide] | 98.1%
